From patent US11667631B2, “FGFR4 inhibitor, preparation method therefor, and applications thereof” (Jiangsu Hansoh Pharmaceutical Group Co., Ltd., priority 2016, dated 2023)
Read-outs that look alike come from different tables or passages of the source.

How the values were obtained:
FGFR1 kinase = FGFR1 kinase (Homo sapiens (Human), UniProt P11362); assay: Enzymologic experiment of FGFR1 (TR-FRET); format: biochemical; settings: FGFR1 kinase activity
Method in brief: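 FGFR1 at 0.1˜5 nM final with substrate peptide 5˜50 nM and ATP 10˜200 μM final, 0.5˜3 h at room temperature. Stopped with EDTA plus labeled antibody for 1 h; TR-FRET signal read at 665 nm, IC50 fitted from inhibition rates.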

Hep 3B cells = assay: Inhibition of Hep 3B cell proliferation (CellTiter-Glo); format: cell-based; settings: Homo sapiens, Hep3B
HuH-7 cells = assay: Inhibition of HuH-7 cell proliferation (CellTiter-Glo); format: cell-based; settings: Homo sapiens, read-out: HuH-7 IC50
Method in brief: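 HuH-7 cells plated and left 16–24 h, then exposed to serially diluted compound for 72 h at 37 °C, 5% CO2. Viability read by CellTiter-Glo luminescence. IC50 obtained by curve fitting of inhibition rates.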

SK-HEP-1 cells = assay: Inhibition of SK-HEP-1 cell proliferation (CellTiter-Glo); format: cell-based; settings: Homo sapiens, read-out: SK-HEP-1 IC50
Method in brief: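 Cells seeded and allowed to attach 16–24 h, then exposed to serially diluted compound for 72 h at 37 °C, 5% CO2. Viability read by CellTiter-Glo luminescence; IC50 fitted from inhibition rates across concentrations.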

[1] = Pharmacokinetic (PK) analysis in rats; format: in vivo, Sprague Dawley (SD) rats; settings: SD rats, single intragastric administration, 5 mg/kg; for Peak Time tmax: (sampling in hours); for AUC(0-t) / AUC(0-inf) / half-life / Cmax / MRT: Sprague-Dawley, rat, plasma, po; for AUC(0-t): read-out: Area Under Curve AUC0-t; for AUC(0-inf): read-out: Area Under Curve AUC0-∞; for half-life: read-out: Half-Time t1/2 (converted); for Cmax: read-out: Plasma Concentration Cmax; for MRT: read-out: Mean Residence Time MRT
Method in brief: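 Intravenous blood (0.2 ml) was collected into K2EDTA and centrifuged to obtain plasma. Plasma (40 μL) was protein-precipitated with 160 μL acetonitrile. Compound levels were measured by LC/MS/MS on a C18 column using 0.1% formic acid in water and acetonitrile at 0.8 mL/min.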

Hep 3B cell line tumor = assay: Pharmacodynamics test in vivo, Hep 3B tumor-bearing nude mice; settings: Mus musculus, Hep3B, oral 30 mg/kg, 2 times/day, read-out: Tumor inhibition rate
Method: a, A Hep 3B cell line was taken from the cell bank, and the cells were resuscitated with the MEM culture medium (MEM+10% FBS+1% Glu+1% SP). The cells were placed in the cell culture bottle after resuscitation (cell type, date, and the name of the culturing person were marked on the bottle wall) and were incubated in a CO2 Incubator (the incubator temperature was 37° C., and the CO2 concentration was 5%).
b, The cells were passaged after 80-90% of the bottom of the culture bottle was covered by the cells. After passage, the cells were further incubated in the CO2 incubator. The process was repeated until the number of cells met the pharmacodynamic requirements in vivo.
c, The cultured cells were collected and counted by automatic cell counter. According to the counting results, the cells were resuspended with PBS to prepare a cell suspension (density: 7×10^7/mL), which was placed in the ice box for use.
a, Nude mouse was marked with a disposable universal ear tag for mouse and rat before inoculation, and the skin of the inoculated site was disinfected with 75% medical alcohol.
b, At the time of inoculation, the cell suspension was mixed well, 0.1˜1 mL of cell suspension was taken with a 1 mL syringe, after removing air bubbles, and the syringe was placed on an ice bag for use.
c, The nude mice were inoculated successively (the inoculated site was located on the right shoulder of the right back of the nude mice, and inoculated subcutaneously with 0.1 mL of cell suspension).
a, Tumor was measured on Day 14 to Day 16 after inoculation depending on the tumor growth, and tumor size was calculated.
Tumor volume calculation: tumor volume (mm^3)=length (mm)×width (mm)×width (mm)/2
b, According to the size of the tumor, the mice were grouped by random grouping.
c, According to the results of the grouping, the test drug was administered (administration method: oral administration, administration dose: 30 mg/kg, administration volume: 10 mL/kg, administration frequency: 2 times/day, […], vehicle: 0.5% CMC/1% Tween 80).
d, The tumor was measured and weighed twice a week after the test drug was administrated.
e, Animals were euthanized at the end of the test.

FGFR4 kinase = FGFR4 kinase (Homo sapiens (Human), UniProt P22455); assay: Enzymologic experiment of FGFR4 (TR-FRET); format: biochemical; settings: FGFR4 kinase activity
FGFR4 kinase, sequence (P22455 22-802): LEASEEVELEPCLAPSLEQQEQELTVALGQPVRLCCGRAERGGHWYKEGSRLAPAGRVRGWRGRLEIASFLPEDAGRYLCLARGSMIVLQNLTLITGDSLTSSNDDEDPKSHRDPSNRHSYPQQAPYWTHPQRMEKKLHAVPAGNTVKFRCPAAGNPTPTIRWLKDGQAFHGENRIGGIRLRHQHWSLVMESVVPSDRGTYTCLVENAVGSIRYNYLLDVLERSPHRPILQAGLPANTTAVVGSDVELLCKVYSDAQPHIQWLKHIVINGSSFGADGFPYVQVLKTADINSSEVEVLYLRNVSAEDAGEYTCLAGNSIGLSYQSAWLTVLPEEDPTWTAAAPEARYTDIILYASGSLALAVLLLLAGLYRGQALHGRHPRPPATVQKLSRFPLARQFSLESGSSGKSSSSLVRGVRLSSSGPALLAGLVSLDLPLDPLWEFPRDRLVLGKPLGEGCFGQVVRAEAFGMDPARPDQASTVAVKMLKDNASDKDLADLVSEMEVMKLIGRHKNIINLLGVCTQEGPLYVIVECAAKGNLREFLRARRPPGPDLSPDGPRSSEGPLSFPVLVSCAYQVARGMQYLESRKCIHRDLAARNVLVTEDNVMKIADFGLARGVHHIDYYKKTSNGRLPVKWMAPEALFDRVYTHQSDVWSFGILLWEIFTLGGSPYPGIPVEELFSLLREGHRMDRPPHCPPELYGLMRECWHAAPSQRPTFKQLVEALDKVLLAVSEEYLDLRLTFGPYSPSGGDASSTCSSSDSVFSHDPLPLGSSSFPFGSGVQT
Method: In this experiment, the inhibitory effect of the compounds on FGFR4 kinase activity was tested by a fluorescence resonance energy transfer (TR-FRET) method, and the half maximal inhibitory concentration (IC50) of the compounds on the FGFR4 kinase activity was determined.
2) 1˜5 μL of diluted solution in gradient of the compound was added.
3) 1˜5 μL of a substrate mixture containing substrate polypeptide with a final concentration of 5˜50 nM and ATP with a final concentration of 10˜200 μM was added.
4) The mixture was incubated for 0.5˜3 hours at room temperature.
5) 10 μL of EDTA and a test solution comprising labeled antibody were added, and the plate was incubated for 1 hour at room temperature.
7) The inhibition rates were calculated according to the fluorescence signal values.

[2] = 72 h, read-out: Hep 3B IC50, Hep 3B cell proliferation, 72 hours, CellTiter-Glo
[3] = 216 h, 9 days of administration
[4] = Hep 3B cell proliferation, 72 hours, CellTiter-Glo, read-out: Hep 3B IC50
[5] = HuH-7 cell proliferation, 72 hours, CellTiter-Glo
[6] = SK-HEP1, SK-HEP-1 cell proliferation, 72 hours, CellTiter-Glo
[7] = 336 h, 14 days of administration

FGFR1 kinase, sequence (P11362 22-822): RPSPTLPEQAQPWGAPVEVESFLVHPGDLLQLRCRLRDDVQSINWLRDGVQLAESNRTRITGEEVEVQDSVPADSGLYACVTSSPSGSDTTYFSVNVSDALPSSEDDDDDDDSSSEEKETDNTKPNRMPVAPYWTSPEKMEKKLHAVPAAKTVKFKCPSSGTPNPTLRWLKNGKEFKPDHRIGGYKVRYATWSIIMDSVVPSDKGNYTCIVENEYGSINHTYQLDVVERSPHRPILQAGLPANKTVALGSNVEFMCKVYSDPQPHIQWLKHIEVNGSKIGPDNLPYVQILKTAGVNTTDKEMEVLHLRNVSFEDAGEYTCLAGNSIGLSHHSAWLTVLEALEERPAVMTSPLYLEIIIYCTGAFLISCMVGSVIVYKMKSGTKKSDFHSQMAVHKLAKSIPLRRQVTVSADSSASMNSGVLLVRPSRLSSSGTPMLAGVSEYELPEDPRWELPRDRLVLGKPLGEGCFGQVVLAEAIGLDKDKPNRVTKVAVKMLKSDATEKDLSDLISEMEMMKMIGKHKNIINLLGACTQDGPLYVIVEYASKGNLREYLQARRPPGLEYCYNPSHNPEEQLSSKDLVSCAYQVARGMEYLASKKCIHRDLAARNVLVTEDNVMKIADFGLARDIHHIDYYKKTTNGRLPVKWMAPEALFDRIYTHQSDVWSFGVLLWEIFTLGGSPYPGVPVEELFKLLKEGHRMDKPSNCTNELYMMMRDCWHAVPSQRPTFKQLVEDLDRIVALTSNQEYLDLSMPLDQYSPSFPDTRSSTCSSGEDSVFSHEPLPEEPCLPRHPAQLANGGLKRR

Structure (SMILES) | IC50 (FGFR1 kinase) [nM] | IC50 (Hep 3B cells; [2]) [nM] | IC50 (HuH-7 cells; Huh-7, 72 h) [nM] | IC50 (SK-HEP-1 cells; SK-HEP1, 72 h) [nM] | Peak Time tmax [1] [h] | AUC(0-t) [1] [ng·h/mL] | AUC(0-inf) [1] [ng·h/mL] | half-life [1] [h] | Cmax [1] [ng/mL] | inhibition in vivo at 30 mg/kg (Hep 3B cell line tumor; [3]) [%] | IC50 (Hep 3B cells; [4]) [nM] | IC50 (HuH-7 cells; [5]) [nM] | IC50 (SK-HEP-1 cells; [6]) [nM] | Mean Residence Time MRT [1] [h] | inhibition in vivo at 30 mg/kg (Hep 3B cell line tumor; [7]) [%] | MRT [1] [h] | inhibition in vivo at 30 mg/kg (Hep 3B cell line tumor; 240 h, 10 days of administration) [%] | IC50 (FGFR4 kinase) [nM]
N#Cc1cnc(NC(=O)N2CCCc3cc(CN4CCOCC4=O)c(C=O)nc32)cc1S[C@H]1CCOC1 [Example 55, (S)-N-(5-Cyano-4-((tetrahydrofuran-3-yl)thio)pyridin-2-yl)-7-formyl-6-((3-carbonylmorpholino)methyl)-3,4-dihydro-1,8-naphthyridin-1(2H)-carboxamide] | > 10000 | 14.5 | 36.1 | > 10000 | 4 | 1940 | 1950 | 0.79 | 2340 | 33 |  |  |  |  |  |  |  | 
COC[C@@H](C)Nc1cc(NC(=O)N2CCCc3cc(CN4CCCCOC4=O)c(C=O)nc32)ncc1C#N [Example 29] |  |  |  |  | 2 | 9460 | 9460 | 1.27 | 3380 |  | 0.6 | 2.6 | > 10000 | 2.48 | 182 |  |  | 
COCCNc1cc(NC(=O)N2CCCc3cc(CN4CCCCOC4=O)c(C=O)nc32)ncc1C#N [Example 23, N-(5-Cyano-4-((2-methoxyethyl)amino)pyridin-2-yl)-7-formyl-6-((2-carbonyl-1,3-oxazepin-3-yl)methyl)-3,4-dihydro-1,8-naphthyridin-1(2H)-carboxamide] |  | 4.6 | 6.7 | > 10000 | 2 | 9110 | 9110 | 1.02 | 2310 |  |  |  |  |  |  | 3.5 | 89.8 | 
N#Cc1cnc(NC(=O)N2CCCc3cc(CN4CCOCC4=O)c(C=O)nc32)cc1S[C@@H]1CCOC1 [Example 56, (R)-N-(5-Cyano-4-((tetrahydrofuran-3-yl)thio)pyridin-2-yl)-7-formyl-6-((3-carbonylmorpholino)methyl)-3,4-dihydro-1,8-naphthyridin-1(2H)-carboxamide] | > 10000 | 22.7 | 50.1 | > 10000 | 4 | 6650 | 6780 | 0.96 | 1640 | 46.4 |  |  |  |  |  |  |  | 
CO[C@H]1CCC[C@@H]1Nc1cc(NC(=O)N2CCCc3cc(CN4CCOCC4=O)c(C=O)nc32)ncc1C#N [Example 59, N-(5-Cyano-4-(((1S,2S)-2-methoxycyclopentyl)amino)pyridin-2-yl)-7-formyl-6-((3-carbonylmorpholino)methyl)-3,4-dihydro-1,8-naphthyridin-1(2H)-carboxamide] | > 10000 | 8.6 | 18.7 | > 10000 | 2 | 1260 | 1260 | 0.86 | 2060 | 86.7 |  |  |  |  |  | 2.23 |  | 
COCCNc1cc(NC(=O)N2CCCc3cc(CN4CCN(C5CC5)CC4=O)c(C=O)nc32)ncc1C#N [Example 65] | > 10000 |  |  |  | 2 | 2910 | 3390 | 1.02 | 3180 |  | 4.3 | 15.2 | > 10000 |  | 130 | 3.72 |  | 1.62
COCCNc1cc(NC(=O)N2CCCc3cc(CN4CCCOCC4=O)c(C=O)nc32)ncc1C#N [Example 6] | > 10000 | 1.1 | 7.4 | > 10000 | 2 | 9120 | 9140 | 0.9 | 3500 | 78.2 |  |  |  |  |  | 1 |  | 
COC[C@@H](C)Oc1cc(NC(=O)N2CCCc3cc(CN4C(=O)OCC45CC5)c(C=O)nc32)ncc1C#N [Example 42, (R)-N-(5-Cyano-4-((1-methoxypropan-2-yl)oxy)pyridin-2-yl)-7-formyl-6-((5-carbonyl-6-oxa-4-azaspiro[2.4]heptan-4-yl)methyl)-3,4-dihydro-1,8-naphthyridin-1(2H) -carboxamide] | > 10000 |  |  |  | 2 | 6670 | 6790 | 1.06 | 2140 |  | 6.7 | 8.4 | > 10000 |  | 103 | 2.21 |  | 2.3
